Here are results for 17 compounds from US10925876B2, “Methods for using triazolo-pyrazinyl soluble guanylate cyclase activators in fibrotic disorders” (Merck Sharp & Dohme Corp., priority 2016, dated 2021).

In this assay the target is T1, sGC α1/β1 heterodimer (Homo sapiens, UniProt Q02108+Q02153).
T1 construct: expressed in transfected cells
T1 sequence (Q02108 1-690): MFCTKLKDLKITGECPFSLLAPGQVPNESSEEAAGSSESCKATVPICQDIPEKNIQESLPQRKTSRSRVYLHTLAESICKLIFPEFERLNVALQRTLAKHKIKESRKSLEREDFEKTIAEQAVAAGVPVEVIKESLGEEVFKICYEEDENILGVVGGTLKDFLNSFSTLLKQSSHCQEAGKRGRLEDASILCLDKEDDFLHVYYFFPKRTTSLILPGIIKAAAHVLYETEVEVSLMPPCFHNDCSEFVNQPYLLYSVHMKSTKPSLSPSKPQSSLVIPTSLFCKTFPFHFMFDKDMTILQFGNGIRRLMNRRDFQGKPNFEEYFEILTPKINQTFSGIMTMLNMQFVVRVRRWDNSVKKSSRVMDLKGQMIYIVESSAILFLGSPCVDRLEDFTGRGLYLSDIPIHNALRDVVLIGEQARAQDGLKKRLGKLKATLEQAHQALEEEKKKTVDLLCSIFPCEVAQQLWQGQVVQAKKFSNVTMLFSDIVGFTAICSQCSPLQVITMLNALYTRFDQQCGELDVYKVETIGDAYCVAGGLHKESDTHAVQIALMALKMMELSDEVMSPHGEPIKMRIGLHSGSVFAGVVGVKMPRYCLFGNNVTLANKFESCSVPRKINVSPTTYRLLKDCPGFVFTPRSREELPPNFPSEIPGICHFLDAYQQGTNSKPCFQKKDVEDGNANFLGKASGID
T1 sequence (Q02153 1-619): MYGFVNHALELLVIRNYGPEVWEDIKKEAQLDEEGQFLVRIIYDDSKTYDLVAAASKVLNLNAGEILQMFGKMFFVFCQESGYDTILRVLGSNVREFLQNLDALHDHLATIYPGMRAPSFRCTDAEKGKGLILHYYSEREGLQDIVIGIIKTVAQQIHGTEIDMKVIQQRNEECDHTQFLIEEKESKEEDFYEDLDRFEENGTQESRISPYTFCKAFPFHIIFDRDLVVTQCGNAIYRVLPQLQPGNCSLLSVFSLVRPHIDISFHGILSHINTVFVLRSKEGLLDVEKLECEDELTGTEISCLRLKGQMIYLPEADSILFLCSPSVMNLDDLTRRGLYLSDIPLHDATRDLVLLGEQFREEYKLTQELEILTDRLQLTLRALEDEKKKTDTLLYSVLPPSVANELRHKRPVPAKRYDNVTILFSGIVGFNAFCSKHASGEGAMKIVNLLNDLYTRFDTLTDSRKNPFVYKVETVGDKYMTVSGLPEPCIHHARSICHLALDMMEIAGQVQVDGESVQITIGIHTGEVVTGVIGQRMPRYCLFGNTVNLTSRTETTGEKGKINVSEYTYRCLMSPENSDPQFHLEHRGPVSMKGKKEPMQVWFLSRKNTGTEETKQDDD
Nature of the assay: Cell-Based sGC Functional Assay (CASA Assay), cGMP generation in CHO-K1/sGC cells. The note with it: maximum cGMP production of Compound A set to 100% activation, read-out: % Act. (percent activation relative to Compound A). The source says:
sGC is a heme-containing enzyme that converts GTP to secondary messenger cGMP. Increases in cGMP levels affect several physiological processes including vasorelaxation through multiple downstream pathways. […] Heme-dependent activators (HDAs) preferentially activate sGC containing a ferrous heme group. To determine the effect of sGC activators on enzyme activity, the CASA assay was developed to monitor the generation of cGMP in a cell line that stably expresses the heterodimeric sGC protein.
A CHO-K1 cell line stably expressing the sGC α1/β1 heterodimer was generated using a standard transfection protocol. CHO-K1 cells were transfected with plasmids pIREShyghsGCα1 and pIRESneo-hsGCβ1 simultaneously using FUGENE reagent. Clones that stably express both subunits were selected with hygromycin and neomycin for ˜2 weeks. Clone #7 was chosen for the assay and was designated CHO-K1/sGC. CHO-K1/sGC cells were maintained in F-K12 medium containing 10% heat-inactivated Fetal Bovine Serum (FBS), 100 μg/mL penicillin/streptomycin, 0.5 mg/mL hygromycin and 0.25 mg/mL G418. The cells were then cryopreserved in LN2. On the day of the assay, cells thawed and resuspended in EBSS Assay Buffer (Sigma, E3024) supplemented with 5 mM MgCl2, 10 mM HEPES (4-(2-hydroxyethyl)piperazine-1-ethanesulfonic acid) and 0.05% BSA (bovine serum albumin) (EAB) and cell density was then adjusted to 4×10^5/mL with EAB. IBMX (3-isobutyl-1-methylxanthin, 0.5 mM) was added to inhibit degradation of cGMP. Compounds were diluted from DMSO stock solutions and added to the assay at a final DMSO concentration of 2.5%. Cells were incubated with compounds in the presence and absence of 1 μM of Diethylenetriamine/nitric oxide adduct (DETA-NO; Sigma, 17018) for 1 hr at 37° C. At the end of the incubation period, the reaction was terminated and the cells were lysed with the detection reagents from Cisbio Kits. The level of intracellular cGMP was determined using an HTRF-based assay kit (CisBio, 62GM2PEC), which detects the displacement of a fluorescence labeled cGMP from its specific antibody. The cGMP produced by test compounds was directly compared to the maximum cGMP production (this value was set to equal 100% activation.) of the published sGC-HDA Compound A:
[drawing 298] (Example 1 in WO 2010/065275, published Jun. 10, 2010). The test compounds' activities were then expressed as a percentage of Compound A, the standard in every experiment. This percent activation was calculated either in the presence or absence of DETA-NO which was then plotted. IP and maximum fold induction was derived using ADA analysis software for 4P fit.

As for `CC1(c2ccc(F)cn2)C(=O)Nc2nc(-c3cn4ncnc4c(CCCC(F)(F)F)n3)nc(N)c21` (centres unmarked) [Example 22B, 4-amino-5-(5-fluoropyridin-2-yl)-5-methyl-2-(8-(4,4,4-trifluorobutyl)-[1,2,4]triazolo[1,5-a]pyrazin-6-yl)-5H-pyrrolo[2,3-d]pyrimidin-6(7H)-one], the Emax turned out to be 130%.

Consider `C[C@@]1(c2ccc(F)cc2)C(=O)Nc2nc(-c3cn4ncnc4c(CCCC(F)(F)F)n3)nc(N)c21` [Example 23A, (S)-4-amino-5-(4-fluorophenyl)-5-methyl-2-(8-(4,4,4-trifluorobutyl)-[1,2,4]triazolo[1,5-a]pyrazin-6-yl)-5,7-dihydro-6H-pyrrolo[2,3-d]pyrimidin-6-one], for which the Emax turned out to be 163%.

For the compound `CC1(c2ccc(C(F)(F)F)cc2)C(=O)Nc2nc(-c3cn4ncnc4c(CCCC(F)(F)F)n3)nc(N)c21` (centres unmarked) [Example 24B, 4-amino-5-methyl-2-(8-(4,4,4-trifluorobutyl)-[1,2,4]triazolo[1,5-a]pyrazin-6-yl)-5-(4-(trifluoromethyl)phenyl)-5H-pyrrolo[2,3-d]pyrimidin-6(7H)-one], the Emax stood at 133%.

Turning to `CC1(c2ccc(Cl)cn2)C(=O)Nc2nc(-c3cn4ncnc4c(CCCC(F)(F)F)n3)nc(N)c21` (centres unmarked) [Example 26A, 4-amino-5-(5-chloropyridin-2-yl)-5-methyl-2-(8-(4,4,4-trifluorobutyl)-[1,2,4]triazolo[1,5-a]pyrazin-6-yl)-5H-pyrrolo[2,3-d]pyrimidin-6(7H)-one], the Emax was 162%.

For `Nc1nc(-c2cn3ncnc3c(CCCC(F)(F)F)n2)nc2c1C(c1ccc(Cl)cn1)(C1CC1)C(=O)N2` (centres unmarked) [Example 27A, 4-amino-5-(5-chloropyridin-2-yl)-5-cyclopropyl-2-(8-(4,4,4-trifluorobutyl)-[1,2,4]triazolo[1,5-a]pyrazin-6-yl)-5H-pyrrolo[2,3-d]pyrimidin-6(7H)-one], the Emax was found to be 178%.

For the compound `CC1(c2ccc(Cl)c(F)c2)C(=O)Nc2nc(-c3cn4ncnc4c(CCCC(F)(F)F)n3)nc(N)c21` (centres unmarked) [Example 28B, 4-amino-5-(4-chloro-3-fluorophenyl)-5-methyl-2-(8-(4,4,4-trifluorobutyl)-[1,2,4]triazolo[1,5-a]pyrazin-6-yl)-5H-pyrrolo[2,3-d]pyrimidin-6(7H)-one], the Emax came to 171%.

For `CC1(c2ccc(Cl)cc2)C(=O)Nc2nc(-c3cn4ncnc4c(CCCC(F)(F)F)n3)nc(N)c21` (centres unmarked) [Example 29A, 4-amino-5-(4-chlorophenyl)-5-methyl-2-(8-(4,4,4-trifluorobutyl)-[1,2,4]triazolo[1,5-a]pyrazin-6-yl)-5H-pyrrolo[2,3-d]pyrimidin-6(7H)-one], the Emax turned out to be 101%.

As for `Nc1nc(-c2cn3ncnc3c(CCCC(F)(F)F)n2)nc2c1C(c1ccc(F)cc1)(C1CC1)C(=O)N2` (centres unmarked) [Example 30B, 4-amino-5-cyclopropyl-5-(4-fluorophenyl)-2-(8-(4,4,4-trifluorobutyl)-[1,2,4]triazolo[1,5-a]pyrazin-6-yl)-5H-pyrrolo[2,3-d]pyrimidin-6(7H)-one], the Emax came to 117%.

Turning to `Nc1nc(-c2cn3ncnc3c(CCCC(F)(F)F)n2)nc2c1C(c1ccc(Cl)cc1)(C1CC1)C(=O)N2` (centres unmarked) [Example 31B, 4-amino-5-(4-chlorophenyl)-5-cyclopropyl-2-(8-(4,4,4-trifluorobutyl)-[1,2,4]triazolo[1,5-a]pyrazin-6-yl)-5H-pyrrolo[2,3-d]pyrimidin-6(7H)-one], the Emax turned out to be 104%.

As for `Nc1nc(-c2cn3ncnc3c(CCCC(F)(F)F)n2)nc2c1C(c1ccc(F)c(F)c1)(C1CC1)C(=O)N2` (centres unmarked) [Example 32A, 4-amino-5-cyclopropyl-5-(3,4-difluorophenyl)-2-(8-(4,4,4-trifluorobutyl)-[1,2,4]triazolo[1,5-a]pyrazin-6-yl)-5H-pyrrolo[2,3-d]pyrimidin-6(7H)-one], the Emax was determined as 144%.

With `Nc1nc(-c2cn3ncnc3c(CCCC(F)(F)F)n2)nc2c1C(c1ccc(C(F)(F)F)cc1)(C1CC1)C(=O)N2` (centres unmarked) [Example 35A, 4-amino-5-cyclopropyl-2-(8-(4,4,4-trifluorobutyl)-[1,2,4]triazolo[1,5-a]pyrazin-6-yl)-5-(4-(trifluoromethyl)phenyl)-5H-pyrrolo[2,3-d]pyrimidin-6(7H)-one], the Emax stood at 164%.

With `CC1(c2ccccc2)C(=O)Nc2nc(-c3cn4ncnc4c(CCCC(F)(F)F)n3)nc(N)c21` (centres unmarked) [Example 37B, 4-amino-5-methyl-5-phenyl-2-(8-(4,4,4-trifluorobutyl)-[1,2,4]triazolo[1,5-a]pyrazin-6-yl)-5H-pyrrolo[2,3-d]pyrimidin-6(7H)-one], the Emax turned out to be 112%.

Regarding `CC1(c2ccc(F)c(F)c2)C(=O)Nc2nc(-c3cn4ncnc4c(CCCC(F)(F)F)n3)nc(N)c21` (centres unmarked) [Example 38B, 4-amino-5-(3,4-difluorophenyl)-5-methyl-2-(8-(4,4,4-trifluorobutyl)-[1,2,4]triazolo[1,5-a]pyrazin-6-yl)-5H-pyrrolo[2,3-d]pyrimidin-6(7H)-one], the Emax is 120%.

As to `COc1ccc(C2(C)C(=O)Nc3nc(-c4cn5ncnc5c(CCCC(F)(F)F)n4)nc(N)c32)nc1` (centres unmarked) [Example 40A, 4-amino-5-(5-methoxypyridin-2-yl)-5-methyl-2-(8-(4,4,4-trifluorobutyl)-[1,2,4]triazolo[1,5-a]pyrazin-6-yl)-5H-pyrrolo[2,3-d]pyrimidin-6(7H)-one], the Emax was determined as 130%.

With `CC1(c2ccc(F)c(Cl)c2)C(=O)Nc2nc(-c3cn4ncnc4c(CCCC(F)(F)F)n3)nc(N)c21` (centres unmarked) [Example 42B, 4-amino-5-(3-chloro-4-fluorophenyl)-5-methyl-2-(8-(4,4,4-trifluorobutyl)-[1,2,4]triazolo[1,5-a]pyrazin-6-yl)-5H-pyrrolo[2,3-d]pyrimidin-6(7H)-one], the Emax turned out to be 82%.

In the case of `CC1(c2ccc(C(F)F)cn2)C(=O)Nc2nc(-c3cn4ncnc4c(CCCC(F)(F)F)n3)nc(N)c21` (centres unmarked) [Example 43B, 4-amino-5-(5-(difluoromethyl)pyridin-2-yl)-5-methyl-2-(8-(4,4,4-trifluorobutyl)-[1,2,4]triazolo[1,5-a]pyrazin-6-yl)-5H-pyrrolo[2,3-d]pyrimidin-6(7H)-one], the Emax was 69%.

For the compound `Cc1ccc(C2(C)C(=O)Nc3nc(-c4cn5ncnc5c(CCCC(F)(F)F)n4)nc(N)c32)nc1` (centres unmarked) [Example 46B, 4-amino-5-methyl-5-(5-methylpyridin-2-yl)-2-(8-(4,4,4-trifluorobutyl)-[1,2,4]triazolo[1,5-a]pyrazin-6-yl)-5H-pyrrolo[2,3-d]pyrimidin-6(7H)-one], the Emax is 67%.
